Measurements from US6479435B1, “Diaryl ethers and processes for their preparation and herbicidal and desiccant compositions containing them” (ISK Americas Incorporated, priority 1997, dated 2002).

Columns and labels:
Type in all cases: in vivo
[1] = tested on: soybean (Glycine max L., var. Pella 86, SOY); experiment: Post-emerge greenhouse test, crop damage rating; details: 14 days after application
Summary of the method: (§1)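 Scores use a 0 (no damage) to 100 (complete kill) scale, taken 14 days after a foliar spray. Acetone solutions with 0.25% v/v non-ionic surfactant were applied by track sprayer at 187 l/ha and 63-1000 g ai/ha to bottom-watered 2-3 leaf plants.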

[2] = tested on: Johnsongrass (Sorghum halepense, SORHA); experiment: Post-emerge greenhouse herbicide test, phytotoxicity rating; details: 14 days after application
Summary of the method: as §1

[3] = tested on: redroot pigweed (Amaranthus retroflexus, AMARE); experiment: as above; details: 14 days after application
Summary of the method: as §1

[4] = tested on: velvetleaf (Abutilon theophrasti, ABUTH); experiment: as above; details: 14 days after application
Summary of the method: as §1

[5] = tested on: lambsquarters (Chenopodium album, CHEAL); experiment: as above; details: 14 days after application
Summary of the method: as §1

[6] = tested on: ivyleaf morningglory (Ipomoea hederacea, IPOHE); experiment: as above; details: 14 days after application
Summary of the method: as §1

[7] = tested on: green foxtail (Setaria viridis, SETVI); experiment: as above; details: 14 days after application
Summary of the method: as §1

[8] = tested on: large crabgrass (Digitaria sanguinalis, DIGSA); experiment: as above; details: 14 days after application
Summary of the method: as §1

[9] = tested on: barnyardgrass (Echinochloa crusgalli, ECHCG); experiment: as above; details: 14 days after application
Summary of the method: as §1

[10] = tested on: soybean (Glycine max L., var. Pella 86, SOY); experiment: Pre-emerge greenhouse test, crop damage rating; details: 14 days after application, rating scale 0-100
Summary of the method: (§2)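 Visual 0–100 injury rating (100 = all plants dead) taken 14 days after treatment. Rates of 125–1000 g ai/ha in acetone, 187 l/ha, were sprayed onto soil one day post-sowing; pots were surface-watered to incorporate, then bottom-watered.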

[11] = tested on: common ragweed (Ambrosia artemisiifolia L., AMBEL); experiment: Post-emerge greenhouse herbicide test, phytotoxicity rating; details: 14 days after application
Summary of the method: as §1

[12] = tested on: field corn (Zea mays L., var. Dekalb 535, CORN); experiment: Pre-emerge greenhouse test, crop damage rating; details: 14 days after application, rating scale 0-100
Summary of the method: as §2

[13] = tested on: upland rice (Oryza sp., var.Tebonnet, RICE); experiment: Pre-emerge greenhouse test, crop damage rating; details: 14 days after application, rating scale 0-100
Summary of the method: as §2

[14] = tested on: Johnsongrass (Sorghum halepense, SORHA); experiment: Pre-emerge greenhouse herbicide test, phytotoxicity rating; details: 14 days after application, rating scale 0-100
Summary of the method: as §2

[15] = tested on: redroot pigweed (Amaranthus retroflexus, AMARE); experiment: as above; details: 14 days after application, rating scale 0-100
Summary of the method: as §2

[16] = tested on: velvetleaf (Abutilon theophrasti, ABUTH); experiment: as above; details: 14 days after application, rating scale 0-100
Summary of the method: as §2

[17] = tested on: sicklepod (Cassia obtusifolia, CASOB); experiment: as above; details: 14 days after application, rating scale 0-100
Summary of the method: as §2

[18] = tested on: lambsquarters (Chenopodium album, CHEAL); experiment: as above; details: 14 days after application, rating scale 0-100
Summary of the method: as §2

[19] = tested on: ivyleaf morningglory (Ipomoea hederacea, IPOHE); experiment: as above; details: 14 days after application, rating scale 0-100
Summary of the method: as §2

[20] = tested on: green foxtail (Setaria viridis, SETVI); experiment: as above; details: 14 days after application, rating scale 0-100
Summary of the method: as §2

[21] = tested on: common ragweed (Ambrosia artemisiifolia L., AMBEL); experiment: as above; details: 14 days after application, rating scale 0-100
Summary of the method: as §2

[22] = tested on: large crabgrass (Digitaria sanguinalis, DIGSA); experiment: as above; details: 14 days after application, rating scale 0-100
Summary of the method: as §2

[23] = tested on: barnyardgrass (Echinochloa crusgalli, ECHCG); experiment: as above; details: 14 days after application, rating scale 0-100
Summary of the method: as §2

[24] = tested on: field corn (Zea mays L., var. Dekalb 535, CORN); experiment: Post-emerge greenhouse test, crop damage rating; details: 14 days after application
Summary of the method: as §1

[25] = tested on: upland rice (Oryza sp., var.Tebonnet, RICE); experiment: Post-emerge greenhouse test, crop damage rating; details: 14 days after application
Summary of the method: as §1

Structure (SMILES): N#Cc1ccccc1Oc1cc(-n2c(=O)n3n(c2=S)CCCC3)c(F)cc1Cl [Compound 8-7]
- SOY crop damage rating (0-100) ([1]; 63 g al/ha): 20
- SOY crop damage rating (0-100) ([1]; 500 g al/ha): 70
- SORHA phytotoxicity rating (0-100) ([2]; 63 g al/ha): 0
- SORHA phytotoxicity rating (0-100) ([2]; 500 g al/ha): 70
- AMARE phytotoxicity rating (0-100) ([3]; 63 g al/ha): 100
- AMARE phytotoxicity rating (0-100) ([3]; 500 g al/ha): 100
- ABUTH phytotoxicity rating (0-100) ([4]; 63 g al/ha): 100
- ABUTH phytotoxicity rating (0-100) ([4]; 500 g al/ha): 100
- CHEAL phytotoxicity rating (0-100) ([5]; 63 g al/ha): 90
- CHEAL phytotoxicity rating (0-100) ([5]; 500 g al/ha): 100
- IPOHE phytotoxicity rating (0-100) ([6]; 63 g al/ha): 100
- IPOHE phytotoxicity rating (0-100) ([6]; 500 g al/ha): 100
- SETVI phytotoxicity rating (0-100) ([7]; 63 g al/ha): 0
- SETVI phytotoxicity rating (0-100) ([7]; 500 g al/ha): 0
- DIGSA phytotoxicity rating (0-100) ([8]; 63 g al/ha): 0
- DIGSA phytotoxicity rating (0-100) ([8]; 500 g al/ha): 50
- ECHCG phytotoxicity rating (0-100) ([9]; 63 g al/ha): 0
- ECHCG phytotoxicity rating (0-100) ([9]; 500 g al/ha): 20
- crop damage rating SOY ([10]; 125 g ai/ha): 0
- crop damage rating SOY ([10]; 500 g ai/ha): 20
- AMBEL phytotoxicity rating (0-100) ([11]; 63 g al/ha): 60
- AMBEL phytotoxicity rating (0-100) ([11]; 500 g al/ha): 80
- crop damage rating CORN ([12]; 125 g ai/ha): 0
- crop damage rating CORN ([12]; 500 g ai/ha): 10
- crop damage rating RICE ([13]; 125 g ai/ha): 20
- crop damage rating RICE ([13]; 500 g ai/ha): 50
- phytotoxicity rating SORHA ([14]; 125 g ai/ha): 20
- phytotoxicity rating SORHA ([14]; 500 g ai/ha): 70
- phytotoxicity rating AMARE ([15]; 125 g ai/ha): 90
- phytotoxicity rating AMARE ([15]; 500 g ai/ha): 100
- phytotoxicity rating ABUTH ([16]; 125 g ai/ha): 100
- phytotoxicity rating ABUTH ([16]; 500 g ai/ha): 100
- phytotoxicity rating CASOB ([17]; 125 g ai/ha): 70
- phytotoxicity rating CASOB ([17]; 500 g ai/ha): 100
- phytotoxicity rating CHEAL ([18]; 125 g ai/ha): 100
- phytotoxicity rating CHEAL ([18]; 500 g ai/ha): 100
- phytotoxicity rating IPOHE ([19]; 125 g ai/ha): 30
- phytotoxicity rating IPOHE ([19]; 500 g ai/ha): 100
- phytotoxicity rating SETVI ([20]; 125 g ai/ha): 70
- phytotoxicity rating SETVI ([20]; 500 g ai/ha): 90
- phytotoxicity rating AMBEL ([21]; 125 g ai/ha): 70
- phytotoxicity rating AMBEL ([21]; 500 g ai/ha): 100
- phytotoxicity rating DIGSA ([22]; 125 g ai/ha): 60
- phytotoxicity rating DIGSA ([22]; 500 g ai/ha): 99
- phytotoxicity rating ECHCG ([23]; 125 g ai/ha): 100
- phytotoxicity rating ECHCG ([23]; 500 g ai/ha): 100
- CORN crop damage rating (0-100) ([24]; 63 g al/ha): 20
- CORN crop damage rating (0-100) ([24]; 500 g al/ha): 0
- RICE crop damage rating (0-100) ([25]; 63 g al/ha): 10
- RICE crop damage rating (0-100) ([25]; 500 g al/ha): 50

Structure (SMILES): O=c1n(CCCF)nnn1-c1cc(Oc2ncccc2[N+](=O)[O-])c(Cl)cc1Cl [Compound 6-3]
- SOY crop damage rating (0-100) ([1]; 63 g al/ha): 0
- SOY crop damage rating (0-100) ([1]; 500 g al/ha): 30
- SORHA phytotoxicity rating (0-100) ([2]; 63 g al/ha): 0
- SORHA phytotoxicity rating (0-100) ([2]; 500 g al/ha): 30
- AMARE phytotoxicity rating (0-100) ([3]; 63 g al/ha): 20
- AMARE phytotoxicity rating (0-100) ([3]; 500 g al/ha): 80
- ABUTH phytotoxicity rating (0-100) ([4]; 63 g al/ha): 0
- ABUTH phytotoxicity rating (0-100) ([4]; 500 g al/ha): 20
- CHEAL phytotoxicity rating (0-100) ([5]; 63 g al/ha): 0
- CHEAL phytotoxicity rating (0-100) ([5]; 500 g al/ha): 80
- IPOHE phytotoxicity rating (0-100) ([6]; 63 g al/ha): 20
- IPOHE phytotoxicity rating (0-100) ([6]; 500 g al/ha): 70
- SETVI phytotoxicity rating (0-100) ([7]; 63 g al/ha): 0
- SETVI phytotoxicity rating (0-100) ([7]; 500 g al/ha): 30
- DIGSA phytotoxicity rating (0-100) ([8]; 63 g al/ha): 0
- DIGSA phytotoxicity rating (0-100) ([8]; 500 g al/ha): 0
- ECHCG phytotoxicity rating (0-100) ([9]; 63 g al/ha): 0
- ECHCG phytotoxicity rating (0-100) ([9]; 500 g al/ha): 20
- crop damage rating SOY ([10]; 125 g ai/ha): 0
- crop damage rating SOY ([10]; 500 g ai/ha): 0
- AMBEL phytotoxicity rating (0-100) ([11]; 63 g al/ha): 0
- AMBEL phytotoxicity rating (0-100) ([11]; 500 g al/ha): 0
- crop damage rating CORN ([12]; 125 g ai/ha): 30
- crop damage rating CORN ([12]; 500 g ai/ha): 10
- crop damage rating RICE ([13]; 125 g ai/ha): 20
- crop damage rating RICE ([13]; 500 g ai/ha): 20
- phytotoxicity rating SORHA ([14]; 125 g ai/ha): 30
- phytotoxicity rating SORHA ([14]; 500 g ai/ha): 0
- phytotoxicity rating AMARE ([15]; 125 g ai/ha): 0
- phytotoxicity rating AMARE ([15]; 500 g ai/ha): 90
- phytotoxicity rating ABUTH ([16]; 125 g ai/ha): 40
- phytotoxicity rating ABUTH ([16]; 500 g ai/ha): 30
- phytotoxicity rating CASOB ([17]; 125 g ai/ha): 30
- phytotoxicity rating CASOB ([17]; 500 g ai/ha): 40
- phytotoxicity rating CHEAL ([18]; 125 g ai/ha): 0
- phytotoxicity rating CHEAL ([18]; 500 g ai/ha): 90
- phytotoxicity rating IPOHE ([19]; 125 g ai/ha): 0
- phytotoxicity rating IPOHE ([19]; 500 g ai/ha): 20
- phytotoxicity rating SETVI ([20]; 125 g ai/ha): 99
- phytotoxicity rating SETVI ([20]; 500 g ai/ha): 70
- phytotoxicity rating AMBEL ([21]; 125 g ai/ha): 100
- phytotoxicity rating AMBEL ([21]; 500 g ai/ha): 40
- phytotoxicity rating DIGSA ([22]; 125 g ai/ha): 10
- phytotoxicity rating DIGSA ([22]; 500 g ai/ha): 50
- phytotoxicity rating ECHCG ([23]; 125 g ai/ha): 60
- phytotoxicity rating ECHCG ([23]; 500 g ai/ha): 0
- CORN crop damage rating (0-100) ([24]; 63 g al/ha): 0
- CORN crop damage rating (0-100) ([24]; 500 g al/ha): 0
- RICE crop damage rating (0-100) ([25]; 63 g al/ha): 0
- RICE crop damage rating (0-100) ([25]; 500 g al/ha): 40
